Measured values taken from publication PMC8266621 (2021).

How the values were obtained:
[1] = tested on: 46 nt NMT1 RNA (GAAA loop), wild-type xanthine riboswitch (RNA, riboswitch) GGAGUAGAAGCGUUCAGCGGCCGAAAGGCCGCCCGGAAAUUGCUCC; test: ITC; settings: K+ 50 mM, Mg2+ 10 mM, 50 mM Tris pH 8.0, 25 °C; for binding: RNA (1.4 mM stock) titrated into 0.1 mM ligand, N.D.; for Kd: RNA titrated into 0.1 mM ligand
[2] = tested on: C11G-G35C (RNA, riboswitch) GGAGUAGAAGGGUUCAGCGGCCGAAAGGCCGCCCCGAAAUUGCUCC; test: ITC; settings: K+ 50 mM, Mg2+ 10 mM; 50 mM Tris pH 8.0, 25 °C; RNA (1.4 mM stock) titrated into 0.1 mM ligand
[3] = tested on: G10A (RNA, riboswitch) GGAGUAGAAACGUUCAGCGGCCGAAAGGCCGCCCGGAAAUUGCUCC; test: ITC; settings: K+ 50 mM, Mg2+ 10 mM; 50 mM Tris pH 8.0, 25 °C; RNA (1.4 mM stock) titrated into 0.1 mM ligand
[4] = tested on: C34G (RNA, riboswitch) GGAGUAGAAGCGUUCAGCGGCCGAAAGGCCGCCGGGAAAUUGCUCC; test: ITC; settings: K+ 50 mM, Mg2+ 10 mM; 50 mM Tris pH 8.0, 25 °C; 3- to 4-fold decrease
[5] = tested on: A16G (RNA, riboswitch) GGAGUAGAAGCGUUCGGCGGCCGAAAGGCCGCCCGGAAAUUGCUCC; test: ITC; settings: K+ 50 mM, Mg2+ 10 mM; 50 mM Tris pH 8.0, 25 °C; 4-fold less affinity
[6] = tested on: A16G/C33U (RNA, riboswitch) GGAGUAGAAGCGUUCGGCGGCCGAAAGGCCGCUCGGAAAUUGCUCC; test: ITC; settings: K+ 50 mM, Mg2+ 10 mM; 50 mM Tris pH 8.0, 25 °C; 4-fold less affinity
[7] = tested on: A8U (RNA, riboswitch) GGAGUAGUAGCGUUCAGCGGCCGAAAGGCCGCCCGGAAAUUGCUCC; test: ITC; settings: K+ 50 mM, Mg2+ 10 mM; 50 mM Tris pH 8.0, 25 °C; RNA (1.4 mM stock) titrated into 0.1 mM ligand
[8] = tested on: A6Ap (RNA, riboswitch, 2-aminopurine at 6) GGAGUAGAAGCGUUCAGCGGAAACGCCCGGAAAUUGCUCC; test: 2-aminopurine fluorescence; settings: K+ 100 mM, Mg2+ 20 mM; 100 mM Tris-HCl pH 8.4, 20 °C; 0.5 μM RNA, 3 mM xanthine; qualitative
[9] = tested on: G7Ap (RNA, riboswitch, 2-aminopurine at 7) GGAGUAGAAGCGUUCAGCGGAAACGCCCGGAAAUUGCUCC; test: 2-aminopurine fluorescence; settings: K+ 100 mM, Mg2+ 20 mM; 100 mM Tris-HCl pH 8.4, 20 °C; 0.5 μM RNA, 3 mM xanthine; qualitative
[10] = tested on: A9C (RNA, riboswitch) GGAGUAGACGCGUUCAGCGGCCGAAAGGCCGCCCGGAAAUUGCUCC; test: ITC; settings: K+ 50 mM, Mg2+ 10 mM; 50 mM Tris pH 8.0, 25 °C; RNA (1.4 mM stock) titrated into 0.1 mM ligand
[11] = tested on: A8Ap (RNA, riboswitch, 2-aminopurine at 8) GGAGUAGAAGCGUUCAGCGGAAACGCCCGGAAAUUGCUCC; test: 2-aminopurine fluorescence; settings: K+ 100 mM, Mg2+ 20 mM; 100 mM Tris-HCl pH 8.4, 20 °C; 0.5 μM RNA, 3 mM xanthine; qualitative
[12] = tested on: C11G (RNA, riboswitch) GGAGUAGAAGGGUUCAGCGGCCGAAAGGCCGCCCGGAAAUUGCUCC; test: ITC; settings: K+ 50 mM, Mg2+ 10 mM; 50 mM Tris pH 8.0, 25 °C; RNA (1.4 mM stock) titrated into 0.1 mM ligand
[13] = tested on: C34A (RNA, riboswitch) GGAGUAGAAGCGUUCAGCGGCCGAAAGGCCGCCAGGAAAUUGCUCC; test: ITC; settings: K+ 50 mM, Mg2+ 10 mM; 50 mM Tris pH 8.0, 25 °C; comparable to wild-type
[14] = tested on: original sequence (GCCC loop) of the xanthine riboswitch (RNA, riboswitch) GGAGUAGAAGCGUUCAGCGGCCGCCCGGCCGCCCGGAAAUUGCUCC; test: ITC; settings: K+ 50 mM, Mg2+ 10 mM; 50 mM Tris pH 8.0, 25 °C; RNA titrated into 0.1 mM ligand
[15] = tested on: G7A-A8G (RNA, riboswitch) GGAGUAAGAGCGUUCAGCGGCCGAAAGGCCGCCCGGAAAUUGCUCC; test: ITC; settings: K+ 50 mM, Mg2+ 10 mM; 50 mM Tris pH 8.0, 25 °C; RNA (1.4 mM stock) titrated into 0.1 mM ligand
[16] = tested on: G10C-U40A (RNA, riboswitch) GGAGUAGAACCGUUCAGCGGCCGAAAGGCCGCCCGGAAAAUGCUCC; test: ITC; settings: K+ 50 mM, Mg2+ 10 mM; 50 mM Tris pH 8.0, 25 °C; RNA (1.4 mM stock) titrated into 0.1 mM ligand
[17] = tested on: A8C (RNA, riboswitch) GGAGUAGCAGCGUUCAGCGGCCGAAAGGCCGCCCGGAAAUUGCUCC; test: ITC; settings: K+ 50 mM, Mg2+ 10 mM; 50 mM Tris pH 8.0, 25 °C; RNA (1.4 mM stock) titrated into 0.1 mM ligand
[18] = tested on: G10C (RNA, riboswitch) GGAGUAGAACCGUUCAGCGGCCGAAAGGCCGCCCGGAAAUUGCUCC; test: ITC; settings: K+ 50 mM, Mg2+ 10 mM; 50 mM Tris pH 8.0, 25 °C; RNA (1.4 mM stock) titrated into 0.1 mM ligand
[19] = tested on: C34U (RNA, riboswitch) GGAGUAGAAGCGUUCAGCGGCCGAAAGGCCGCCUGGAAAUUGCUCC; test: ITC; settings: K+ 50 mM, Mg2+ 10 mM; 50 mM Tris pH 8.0, 25 °C; 3- to 4-fold decrease
[20] = tested on: U40A (RNA, riboswitch) GGAGUAGAAGCGUUCAGCGGCCGAAAGGCCGCCCGGAAAAUGCUCC; test: ITC; settings: K+ 50 mM, Mg2+ 10 mM; 50 mM Tris pH 8.0, 25 °C; RNA (1.4 mM stock) titrated into 0.1 mM ligand
[21] = tested on: C11U-G35A (RNA, riboswitch) GGAGUAGAAGUGUUCAGCGGCCGAAAGGCCGCCCAGAAAUUGCUCC; test: ITC; settings: K+ 50 mM, Mg2+ 10 mM; 50 mM Tris pH 8.0, 25 °C; RNA (1.4 mM stock) titrated into 0.1 mM ligand
[22] = tested on: U40C (RNA, riboswitch) GGAGUAGAAGCGUUCAGCGGCCGAAAGGCCGCCCGGAAACUGCUCC; test: ITC; settings: K+ 50 mM, Mg2+ 10 mM; 50 mM Tris pH 8.0, 25 °C; RNA (1.4 mM stock) titrated into 0.1 mM ligand
[23] = tested on: G12A (RNA, riboswitch) GGAGUAGAAGCAUUCAGCGGCCGAAAGGCCGCCCGGAAAUUGCUCC; test: ITC; settings: K+ 50 mM, Mg2+ 10 mM; 50 mM Tris pH 8.0, 25 °C; 7-fold decrease
[24] = tested on: G35C (RNA, riboswitch) GGAGUAGAAGCGUUCAGCGGCCGAAAGGCCGCCCCGAAAUUGCUCC; test: ITC; settings: K+ 50 mM, Mg2+ 10 mM; 50 mM Tris pH 8.0, 25 °C; RNA (1.4 mM stock) titrated into 0.1 mM ligand
[25] = tested on: G12Ap (RNA, riboswitch, 2-aminopurine at 12) GGAGUAGAAGCGUUCAGCGGAAACGCCCGGAAAUUGCUCC; test: 2-aminopurine fluorescence; settings: K+ 100 mM, Mg2+ 20 mM; 100 mM Tris-HCl pH 8.4, 20 °C; 0.5 μM RNA, 3 mM xanthine; qualitative

Compound: Nc1ncnc2[nH]cnc12
- binding [1]: no

Compound: Nc1ncnc2c1ncn2[C@@H]1O[C@H](CO)[C@@H](O)[C@H]1O
- binding [1]: no

Compound: O=c1[nH]c(=O)c2[nH]c(=O)[nH]c2[nH]1
- Kd [1]: 20.4 ± 1.7 µM

Compound: O=c1[nH]c(=O)c2[nH]cnc2[nH]1
- binding [2]: no
- binding [3]: no
- binding [4]: yes
- binding [5]: yes
- binding [6]: yes
- binding [7]: no
- binding [8]: yes
- binding [9]: yes
- binding [10]: no
- binding [11]: yes
- binding [12]: no
- binding [13]: yes
- Kd [14]: 3.6 ± 0.3 µM
- binding [15]: no
- binding [16]: no
- binding [17]: no
- binding [18]: no
- binding [19]: yes
- Kd [1]: 4.4 ± 0.2 µM
- binding [20]: no
- binding [21]: no
- binding [22]: no
- binding [23]: yes
- binding [24]: no
- binding [25]: yes

Compound: O=c1[nH]c(=O)c2[nH]nnc2[nH]1
- Kd [1]: 3.0 ± 0.1 µM

Compound: O=c1[nH]cnc2c1ncn2[C@@H]1O[C@H](CO)[C@@H](O)[C@H]1O
- binding [1]: no

Compound: O=c1[nH]cnc2nc[nH]c12
- binding [1]: no
